Test results: PMC4254541 (Bioorganic & medicinal chemistry letters, 2014)
Where two headings read alike, the source gives them in different places.

How the values were obtained:
Assay type in all cases: binding
[1] = target: synthetic Aβ(1–40) fibrils (Homo sapiens, UniProt P05067); test: Displacement of 5 nM [3H]-1a
[2] = target: synthetic Aβ(1–42) fibrils (Homo sapiens, UniProt P05067); test: Displacement of 5 nM [3H]-1a
[3] = system: Aβ40 and Aβ42 fibrils; test: Displacement of tritiated 1a from Aβ fibrils; conditions: benzothiazole ligands versus tritiated 1a on Aβ fibrils
[4] = read-out: Aβ(1–40) EC50, displacement of 5 nM [3H]-1a from synthetic Aβ(1–40) fibrils
[5] = read-out: Aβ(1–42) EC50, displacement of 5 nM [3H]-1a from synthetic Aβ(1–42) fibrils

synthetic Aβ(1–42) fibrils, sequence (P05067 672-713): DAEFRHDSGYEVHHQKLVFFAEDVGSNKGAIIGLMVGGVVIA
synthetic Aβ(1–40) fibrils, sequence (P05067 672-711): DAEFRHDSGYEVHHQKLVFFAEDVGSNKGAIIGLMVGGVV

| Compound | EC50 [1] [µM] | EC50 [2] [µM] | EC50 [1, 4] [µM] | EC50 [2, 5] [µM] | displacing 1a [3] |
| --- | --- | --- | --- | --- | --- |
| COc1ccc2cc([C@H](C)C(=O)O)ccc2c1 [naproxen] | > 10 | > 10 | – | – | – |
| CC(C)Cc1ccc(C(C)C(=O)O)cc1 (stereo not drawn) [ibuprofen] | > 10 | > 10 | – | – | – |
| O=C(O)c1cc(/C=C/c2ccc(/C=C/c3ccc(O)c(C(=O)O)c3)c(Br)c2)ccc1O [BSB] | 0.23 | 0.12 | – | – | – |
| Thioflavin S [ThS] | – | – | > 10 | > 10 | – |
| COc1cc(/C=C/c2ccc(N)cc2)ccc1/C=C/c1ccc(N)cc1 [BMB, (E,E)-1-methoxy-2,5-bis(4’-aminostyryl)benzene] | > 10 | 3 | – | – | – |
| CNc1ccc(-c2nc3ccc(O)cc3s2)cc1 [PIB, Pittsburgh Compound B] | – | – | – | – | ineffective |
| Nc1c(/N=N/c2ccc(-c3ccc(/N=N/c4cc(S(=O)(=O)O)c5ccccc5c4N)cc3)cc2)cc(S(=O)(=O)O)c2ccccc12 [Congo Red] | 2.3 | 0.7 | – | – | – |
| Oc1ccc(/C=C/c2ccc(/C=C/c3ccc(O)cc3)c(Br)c2)cc1 [K114, (E,E)-1-bromo-2,5-bis(4’-hydroxystyryl)benzene] | > 10 | 3 | – | – | – |
| O=C(O)c1cc(/N=N/c2ccc(-c3ccc(/N=N/c4ccc(O)c(C(=O)O)c4)cc3)cc2)ccc1O [Chrysamine G] | 9 | 0.9 | – | – | – |
| primulin | – | – | > 10 | > 10 | – |
| Cc1ccc2c(c1)sc(-c1ccc(N(C)C)cc1)[n+]2C.[Cl-] [ThT, Thioflavine T] | – | – | – | – | ineffective |
| CNc1ccc(-c2nc3ccccc3s2)cc1 [BTA-1, 2-(4´-methylaminophenyl)benzothiazole] | – | – | – | – | ineffective |
